# Measured values published in patent publication US7135625B2, “Gene concerning brassinosteroid-sensitivity of plants and utilization thereof” (National Institute of Agrobiological Sciences, priority 2000, dated 2006).
# Assays:
# Format in all cases: in vivo, Oriza sativa
# [1] = tested on: d61-1 mutant and d61-2 mutant; assay: Lamina joint test, d61 mutants
# Excerpt: (§1) The degree of bending between the leaf blade and leaf sheath in rice is well known to be sensitive to the concentration of brassinolide or its related compounds. This unusual character of rice leaf is the basis for a quantitative bioassay for brassinosteroids, known as the lamina joint test (Wada, Ketal. (1981) Plant and Cell Physiol. 22, 323–325), even though the biological function of endogenous brassinosteroids in monocotyledonous plants including rice remains unknown. If the mutants are less sensitive to brassinosteroids, the degree of bending between the leaf blade and sheath of the mutant plants will be less than that of the wild type plants.
# (§2) Lamina joints of first leave of wild type T65 plant (the background strain of the mutants), d61-1 mutant, and d61-2 mutant were tested with 10^−3 and 10^−2 μg/ml of brassinosteroids, respectively.
# wild type T65 plant = assay: Lamina joint test, wild type; conditions: wild type T65, first leaf, 10^−3 and 10^−2 μg/ml
# Excerpt: as §1, §2
# OsBRI1 mRNA = assay: Effect of exogenous brassinolide on the level of OsBRI1 mRNA (RNA hybridization); conditions: light- and dark-grown seedlings, 0.9% agar plates with 1 μM brassinolide, six days
# Excerpt: RNA was isolated from various rice tissues as described in literature (Chomczynski, P. and Sacchi, N.: Anal. Biochem. (1987) 162:156). Ten μg of total RNA were electrophoresed in a 1% agarose gel, then transferred to a Hybond N^+ membrane (Amersham), and analyzed by RNA gel blot hybridization. The present inventors used a partial cDNA fragment (Ser^740 to Asp^1116 corresponding to the kinase domain), as a probe which specifically hybridized to the genomic DNA fragment encoding OsBRI1. DNA hybridization analysis was performed with the same probe and hybridization conditions as described above.
# The present inventors also tested the effects of exogenously applied brassinolide and light on the level of OsBRI1 mRNA. Germinating seeds were placed on 0.9% agar plates with or without 1 μM brassinolide and grown for six days in the light or dark.
# [2] = tested on: d61-1 and d61-2 mutant seedlings; assay: Germination of seeds on agar plates with or without brassinolide, d61 mutants; conditions: 1 μM brassinolide on agar plates, observed 1 day after germination
# Protocol: (§3) Rice (Oriza sativa) seeds were soaked in distilled water and made to imbibe for 48 h at 30° C. After washing the seeds with distilled water several times, the seeds were germinated in a dark chamber at 30° C. for 8 days. Rice plants were grown in the field or in the greenhouse at 30° C. (day) and 24° C. (night).
# (§4) Next, seeds of the wild type and mutant plants were germinated on agar plates with or without 1 μM brassinolide. The characteristics of whole seedlings were observed 1 day after germination.
# [3] = tested on: wild type plants (rice seedlings); assay: Germination of seeds on agar plates with or without brassinolide, wild type; conditions: 1 μM brassinolide on agar plates, observed 1 day after germination
# Protocol: as §3, §4
# d61 mutants = assay: Restoration of dwarfism of d61 mutants by application of brassinolide
smiles,measurement,setting,value
CC(C)[C@H](C)[C@@H](O)[C@H](O)[C@@H](C)[C@H]1CC[C@H]2[C@@H]3COC(=O)[C@H]4C[C@H](O)[C@H](O)C[C@]4(C)[C@H]3CC[C@]12C [brassinolide],degree of bending between leaf blade and leaf sheath,"[1]; d61-1 and d61-2 mutants, first leaf, 10^−3 and 10^−2 μg/ml",degree of bending increased
same,degree of bending between leaf blade and leaf sheath,"[1]; d61-2 mutant, 10^−2 μg/ml brassinolide",bent at less than a right angle
same,degree of bending between leaf blade and leaf sheath,wild type T65 plant,even more bent
same,level of OsBRI1 expression,OsBRI1 mRNA,reduced level of OsBRI1 expression
same,growth of seedlings,[2],normal growth patterns
same,growth of seedlings,[2]; listed as BL,not affected
same,"growth of seedlings (coleoptile, foliage leaves)",[3],elongated abnormally
same,root elongation,[3],inhibited
same,"growth of seedlings (coleoptile, foliage leaves)",[3]; listed as BL,induced abnormal growth
same,restoration of the dwarfism of the d61 mutants,d61 mutants,could not be achieved
